row,melting point,SMILES
1,106 to 108 °C,O=C(O)CCc1ccccc1C(=O)NCCc1ccccc1
2,70 °C,Cc1cc(C2(c3ccc(OC(F)F)cc3)N=C(N)N(C)C2=O)ccc1F (centres undefined)
3,265 to 266 °C,COc1ccc(/C=C/c2nc3c([nH]2)c(=O)n(C)c(=O)n3C)c(OC)c1OC
4,135 to 136 °C,Cc1nccc(N2CCC(CN3CCN(S(=O)(=O)c4ccc(C(F)(F)F)cc4)CC3)CC2)n1
5,152 to 154 °C,CCOC(=O)Nc1cc(O)c(Cl)cc1F
6,196 to 197 °C,CC(C)(C)OC(=O)c1nc(-c2ccccc2)[nH]c1-c1cnccn1
7,189 to 190 °C,O=C(O)C1CCC(c2ccc(Cl)cc2)n2c(=O)n(CCS)c(=O)n21 (centres undefined)
8,174 to 178 °C,CNC(=O)Nc1ccc(F)cc1Cl
9,76 to 77.5 °C,COc1ccc(/C=C/c2ccccn2)cc1OC1CCCC1
10,155 to 156 °C,Cc1cccc(-c2n[nH]cc2-c2ccc(F)c(-c3cnn(C)c3)c2)n1
11,77 to 79 °C,O=S(=O)(c1ccc(Cl)cc1)C(CCCCCCO)c1cc(F)ccc1F (centres undefined)
12,199 to 200 °C,CC(=O)NCc1cccc(-c2nc(=O)c3ccccc3s2)n1
13,107 to 109 °C,CNS(=O)(=O)c1cc(C(=O)CCCCCl)cc2c1CCC2
14,39 to 41 °C,C=CCn1nc(CCCC)c(Cc2ccc(-c3ccccc3-c3nnn[nH]3)cc2)c1COC
15,72 to 75 °C,ClCCCOc1ccc(-c2nccs2)cc1
16,124 to 125 °C,N#Cc1cc(=O)c2ccc(OCCCCl)cc2o1
17,> 260 °C,CC(C)c1sc2ncnc(N)c2c1-c1ccc([N+](=O)[O-])cc1
18,138 to 140 °C,COC(=O)C(CO)Nc1ccccc1[N+](=O)[O-] (racemic)
19,128 °C,c1cn2nc(N3CCCC3)c3c(c2n1)CCCC3
20,113 to 116 °C,c1ccc(C2CNc3ccccc3O2)cc1 (centres undefined)
21,130 °C,O=C1CCC(c2ccc(CCCN3CCN(c4ccccc4)CC3)cc2)N1 (centres undefined)
22,109 to 110 °C,COCCOCCN1C(=O)C2(c3cc4c(cc3OC2OC)OCCO4)c2c(OC)cccc21 (centres undefined)
23,66 to 68 °C,C=CCOc1cc(NC(=O)OCC)c(F)cc1Br
24,108 to 109 °C,CCCCCCCCCCNC(=O)c1cc(NCC(=O)OC)cc(C(=O)NCCCCCCCCCC)c1

row,melting point,SMILES
1,49 to 51 °C,C[C@H]1CCCC(C)(C)[C@]1(C)C(=O)c1ccc(F)cc1
2,187 to 189 °C,O=C(O)C1=Cc2cc([N+](=O)[O-])ccc2OC1C(F)(F)F (centres undefined)
3,75 to 80 °C,CC(=O)OC1CSC(Oc2cc(C)c(-c3cccnc3)c(C)c2)C(OC(C)=O)C1OC(C)=O (centres undefined)
4,310 to 312 °C,O=C(O)c1cccc2nc3n(c12)CCC3
5,120 to 122 °C,COc1ccc(OC)c2c1CCC(OC(C)=O)(C(C)=O)C2 (centres undefined)
6,141 °C,COC(=O)c1scc(-c2ccccc2)c1-c1ccc(SC)c(F)c1
7,93 to 95 °C,CCOC(=O)Cn1c(-c2ccccc2)nc2cccnc21
8,65.5 to 67.5 °C,O=C1c2cc(CCCCOC(=O)C(F)(F)F)ccc2OCc2sccc21
9,223 to 225 °C,Nc1cc(=O)[nH]c2c1cnn2-c1ccccc1
10,173 °C,Cn1c(CNCC(C)(C)C)cc2cc(NC(=O)c3ccc(C#CC4(O)CC4)cc3)ccc21
11,237 to 238 °C,O=C(O)CCn1c(=O)n(CCCN2CCC(OC(c3ccccc3)c3ccccc3)CC2)c(=O)c2ccccc21
12,196 to 198 °C,CC(C)(CS(C)(=O)=O)NC(=O)c1c(I)cccc1C(=O)Nc1ccc(S(F)(F)(F)(F)F)cc1Cl
13,223 °C,O=C1NCC(Cn2cncn2)(c2ccc(Cl)cc2Cl)O1 (centres undefined)
14,89 to 92 °C,COc1ccc(C(=O)CC2CCCN(C)C2)cc1 (centres undefined)
15,> 250 °C,Nc1nc(N)nc(-c2ccc(-c3ccc([N+](=O)[O-])cc3)cc2)n1
16,150 to 151 °C,O=c1ccn(C2C=CC(CO)O2)c(=O)[nH]1 (centres undefined)
17,171 to 172 °C,CCNC(=C[N+](=O)[O-])NCCSCc1[nH]cnc1C
18,138 to 141 °C,CCCCc1nn2c(C)c(C)nc2n1Cc1ccc(-c2ccccc2-c2nnn[nH]2)cc1
19,226 to 227 °C,COc1ccc([C@H]2NC(=S)N[C@H]2c2ccc(OC)cc2)cc1
20,99 to 101 °C,COC(=O)c1cncc(-c2ccc(OC)cc2)c1
21,108 to 114 °C,CN(C)c1ccc(NC(=O)N(C[C@@H]2CCCC[C@H]2CN(C(=O)Nc2ccc(N(C)C)cc2)C2CCCCC2)C2CCCCC2)cc1 (relative stereo)
22,233 to 235 °C,O=S1(=O)NCN(C2CCCCC2)c2ccc(Cl)cc21
23,117 to 119 °C,Cc1ccc(C(C=O)=CN(C)C)c([N+](=O)[O-])c1
24,82 to 83 °C,COc1ccc(CC(C#N)c2cc(OC)c(OC)c(OC)c2)cc1 (centres undefined)

row,melting point,SMILES
1,97 °C,Cc1cc(C)nc(NC(=O)C(N)Cc2ccccc2)c1 (centres undefined)
2,174 °C,CCCNC(=O)COC1c2ccccc2C(=O)N1c1ccc2ccc(OC)nc2n1 (centres undefined)
3,128 to 129 °C,CN(CCNc1ccc2ncc(Br)n2n1)C(=O)OC(C)(C)C
4,188 to 189 °C,CCCCCCCCCCCCCCCCNC(=O)Nc1sc(C(=O)O)c(C)c1C(=O)OC(C)(C)C
5,223 °C,Cn1c(C(F)(F)F)nn(-c2ccc(Cl)c(C(=O)O)c2)c1=O
6,167 to 168 °C,N#Cc1c(NC(=O)C2CCCCC2)sc(-c2ccccc2)c1Br
7,168 to 169 °C,O=C1SC(Cc2ccc(OCCn3ccc4cccnc43)cc2)C(=O)N1C(c1ccccc1)(c1ccccc1)c1ccccc1 (centres undefined)
8,226 to 227 °C,CCCOc1ccccc1-c1nc2c(C(N)=O)cccc2c(=O)[nH]1
9,172 °C,CC=CC(C)=C1C(=O)OC(=O)C1c1cc(C)n(-c2ccccc2)c1C (centres undefined)
10,133 to 134 °C,O=C(O)C1=Cc2cc(Cl)ccc2NC1C(F)(F)F (centres undefined)
11,156 to 157 °C,COc1ccc(O)c(NC(C)=O)c1
12,221 to 222 °C,COc1cc(C(=O)O)ccc1CN1CCOc2ccc(NC(=O)OC3CCCC3)cc21
13,123 to 124 °C,CCN(CC)CCNC(=O)c1cc(NS(C)(=O)=O)c(Cl)cc1OC
14,187 to 188 °C,CCCCc1nc2c(N)nc3cc(C)ccc3c2o1
15,129 °C,O=S(=O)(c1ccc(Cl)cc1)C(Cc1ccncc1)c1cc(F)ccc1F (centres undefined)
16,178 to 181 °C,CCCCCCCCCCCCCS(=O)c1nc(NC(=O)Nc2c(C(C)C)cccc2C(C)C)n[nH]1 (centres undefined)
17,88 to 90 °C,OC1C=C(c2ccc(C(F)(F)F)cc2)CN(Cc2ccccc2)C1 (centres undefined)
18,73 °C,Cc1cc(C#CC=O)nc(Oc2cc(C(F)(F)F)nn2C)c1
19,218 °C,Cc1cccc(C)c1Oc1ccc2ccc(N)nc2n1
20,28 to 29 °C,CN(C)CCOc1cc(-c2ccccc2)on1
21,188 to 192 °C,O=C(Cn1nc2ccccc2n1)Nc1ccc(-n2nc(C(F)(F)F)cc2C2CC2)cc1
22,195 to 196 °C,CCCC(=O)Oc1c(-c2ccc(-c3ccccc3)cc2)nc2ccccc2c1C(=O)O

row,SMILES,melting point
1,CN1CCN(C(=O)COc2cccc(CCNS(=O)(=O)c3ccc(Cl)cc3)c2)CC1,139 to 141 °C
2,Cc1nnc([C@H](Nc2ccc(C#N)c(Cl)c2C)[C@H](C)O)o1,181 to 183 °C
3,O=c1c2ccccc2nc(CCl)n1-c1ccc(Cl)cc1,234 to 235 °C
4,CN(Cc1cccnc1)C(=N)NC#N,141 to 143 °C
